{
  "source": "patent US9162975B2",
  "about": "“Phenyl carbamate compounds for use in alleviating or treating pain” (Bio-Pharm Solutions Co., Ltd., priority 2011, dated 2015)",
  "key": {"ICR mice [1]": {"tested_on": "ICR mice", "experiment": "Hot-plate test", "assay_type": "in vivo", "conditions": "withdrawal latency relative to vehicle control, 150 mg/kg po, hot plate 55±1° C.", "experimental": "To examine the pain relief effect of the phenyl carbamate compounds, a hot-plate test was conducted in general pain animal model referring to Current Protocols in Neuroscience; Behavioral Neuroscience Unit 8.9.\n(§1) ICR mice (male, 30-35 g; Orient Bio, Korea) were habituated before test in test room for 1 hour Animals were fasted 2 hr before administration of compounds. Each of Compound 1, 2, 3, 4, 5, 63, 65, and 67 was orally administered at the dose of 150 mg/kg, 10 ul/g, bw (n=7˜10/group). All compounds were dissolved in a vehicle of 30% (v/v) PEG 400 or 20% (v/v) Tween 80. The control group was treated the vehicle without compounds.\n0.5 hr after the administration of compounds, the mice were put on a hot plate pre-heated to 55±1° C. (Hu, X. et al, 2008), and then, measured as the withdrawal latency (cut-off time: 30 sec) time until the point when each mouse was taking off a paw from the plate, shaking, licking a paw or hind leg, or jumping from the plate."}, "ICR mice [2]": {"tested_on": "ICR mice", "experiment": "Writhing test (acetic acid)", "assay_type": "in vivo", "conditions": "Mus musculus, po, 1 h", "experimental": "To examine the pain relief effect of the phenyl carbamate compounds, a writhing test was conducted in general pain animal model referring to Fischer, L. G. et al. (2008).\nas §1, with “24-28” for “30-35”, “hr,” for “hr”, “20” for “150”, “(n=3˜5/group).” for “(n=7˜10/group).”\nOne hour after the administration of Compounds, 0.6% acetic acid at the dose of 10 ul/g, bw was injected into the mice. Animals were habituated in the cage for 5 min 5 min after habituation, the number of writhes (abdominal constriction) for 15 min was counted referring to Korzeniewska-Rybicka, I. et al. (1998) and compared with that of a control."}, "SNL model in rats": {"tested_on": "SNL model in rats", "experiment": "Antiallodynic activity on Chung model (SNL, spinal nerve ligation), von Frey", "assay_type": "in vivo, Sprague-Dawley rats", "conditions": "Rattus norvegicus, po, 1 h", "experimental": "Male Sprague-Dawley rats (200-220 g, Orient Bio, Korea) were habituated for 1 week before the experiment and allowed free access to food and water throughout the experimentation. Room temperature and humidity were maintained at 24±2° C. and 50±10%, respectively. Neuropathic surgery (SNL, Spinal nerve ligation) model was done as described in Kim and Chung (1992). Briefly, animal under gaseous anesthesia with isoflurane a 4:4 flow ratio of NO2. The left lumber spinal nerve L5 and L6 were isolated and tightly ligated with 4˜0 silk thread. The wound was treated with a gentamicin antibiotics solution (4 mg/kg, 4 ul/g, bw), and the wound muscle was closed with cat cut chrome 4/0 thread and skin was closed dafilon 4/0 tread. Sham controls were prepared in the same manner as the spinal nerves were exposed, but no ligated L5 and L6 nerves. But, vehicle controls were identical to SNL model, except for administration of vehicles.\nTactile sensitivity (Mechanical allodynia) was evaluated using von Frey monofilaments before and after treatment and animals were used withdrawal threshold value was less than 4 g. […] The tactile sensitivity for ipsilateral hind paw was measured using the up-and-down method (Dixon, 1980) with seven von Frey monofilaments (0.4, 1, 2, 4, 6, 8, and 15 g) to 3 trials. […] The 50% paw withdrawal threshold for each paw was calculated using the following formula: [Xth] log=[vFr] log+ky where [vFr] is the force of the last von Frey used, k=0.2249 which is the average interval (in log units) between the von Frey monofilaments, and y is a value that depends upon the pattern of withdrawal responses (Dixon, 1980).\nAll animals were fasted 18 h before the administration of the compounds. Antiallodynic effect of compounds of Examples 1, 63 and 65 were evaluated at the dose of 5, 10 and 30 mg/kg (n=5˜6), orally administrated in a volume of 5 ul/g, bw in a vehicle of 30% (v/v) PEG 400 (Examples 1 and 63) or 20% (v/v) Tween 80 (Example 65). […]"}, "[3]": {"tested_on": "CFA-induced pain model in rats", "experiment": "Antiallodynic activity on Complete Freund's Adjuvant (CFA)-induced inflammatory pain model, von Frey", "assay_type": "in vivo, Sprague-Dawley rats", "conditions": "0.5 hr, paw withdrawal threshold relative to sham", "experimental": "Male, Sprague-Dawley rats (200-220 g, Nara Bio, Korea) were habituated for 1 week before surgery and allowed free access to food and water throughout the experimentation. Room temperature and humidity were maintained at 24±2° C. and 50±10%, respectively.\nCFA-induced inflammatory pain was induced by the procedure of Nagakura et al. (2003) and Gregory P. et al. (2010) with minor modifications. CFA (sigma, USA) was injected in the right plantar with a 100 ul volume under gaseous anesthesia with isoflurane a 4:4 flow ratio of NO2. Sham controls were injected with 100 ul of saline and vehicle controls were identical to CFA infusion model, except for administration of vehicles.\nTactile sensitivity (Mechanical allodynia) was evaluated using von Frey monofilaments before and after treatment, and animals were used withdrawal threshold value was less than 4 g. One week after surgery, CFA-infused animals (n=4˜6), sham-operated animals (n=12), and vehicle-operated animals (n=17) were tested for tactile sensitivity with von Frey monofilaments 3 trials in each animal. All Animals were placed in a stainless steel mashed chamber and habituated for 30 min in the test box. The tactile sensitivity for ipsilateral hind paw was measured using the up-and-down method (Dixon, 1980) with seven von Frey monofilaments (0.4, 1, 2, 4, 6, 8, and 15 g) to 3 trials. […] The 50% paw withdrawal threshold for each paw was calculated using the following formula: [Xth] log=[vFr] log+ky where [vFr] is the force of the last von Frey used, k=0.2249 which is the average interval (in log units) between the von Frey monofilaments, and y is a value that depends upon the pattern of withdrawal responses (Dixon, 1980).\nAntiallodynic effect of compound of Example 1 was evaluated at the dose of 10, 30 and 60 mg/kg (n=4˜6), intraperitoneally administrated in a volume of 5 ul/g bw in a vehicle of 30% (v/v) PEG. […]\nThe relative values compared to the sham (% control) were calculated and shown in Table 7 and FIG. 7, which show an antiallodynic effect of Compound 1 on CFA-induced pain model in rats."}},
  "data": [
    {"smiles": "C[C@H](OC(N)=O)[C@@H](O)c1ccccc1Cl", "note": "[Example 1, 1-(2-chlorophenyl)-(S)-1-hydroxypropyl-(S)-2-carbamate]", "values": [
      {"measurement": "Hot-plate test (150 mg/kg, 0.5 h, po) % Control", "setting": "ICR mice [1]", "value": 135.7, "unit": "%"},
      {"measurement": "ED50", "setting": "ICR mice [2]", "value": 14.1, "unit": "mg/kg"},
      {"measurement": "ED50", "setting": "SNL model in rats", "value": 11.1, "unit": "mg/kg"},
      {"measurement": "% Control (CFA-induced pain model)", "setting": "[3]; dose 10 mg/kg intraperitoneally", "value": 12.5, "unit": "%"},
      {"measurement": "% Control (CFA-induced pain model)", "setting": "[3]; dose 30 mg/kg intraperitoneally", "value": 40.0, "unit": "%"},
      {"measurement": "% Control (CFA-induced pain model)", "setting": "[3]; dose 60 mg/kg intraperitoneally", "value": 73.7, "unit": "%"}
    ]}
  ]
}
